For 15 compounds, GI50 and TGI results are on record in PubChem BioAssay (NCI).

“And” between values parts separate entries of the source, which are not always exact repeats. Equal values may be shown once.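 Following 48 hours of exposure in 96-well plates, responses at five concentrations were used to interpolate endpoints linearly. GI50 = concentration required for 50% inhibition of growth. At the TGI there is no net growth.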 Some results are limits rather than exact numbers.

Some test systems named below: NCI-H226 lung; HOP-92 NSCLC; K-562 leukemia; A549 NSCLC; LOX IMVI melanoma; HOP-62 NSCLC; UACC-257 melanoma; HL-60(TB) leukemia.
Common to all, as to assay: DTP human tumour cell line panel, 48 h

As to `CCOC1Oc2ccc(C)cc2C(=O)/C1=C\Nc1ccc(C(N)=O)cc1` (stereo not given), the GI50 with NCI-H226 lung is 24.3 µM; in the test on HOP-92 NSCLC it was 79.9 µM; in the test on K-562 leukemia, 22.6 µM; in the test with A549 NSCLC, 33.3 µM; in the test with LOX IMVI melanoma, 13.9 µM; with HOP-62 NSCLC it was 17.6 µM. Moreover, in the test on UACC-257 melanoma, the GI50 was 25.5 µM. For the same compound, the TGI in the test with NCI-H226 lung was 50.7 µM; in the test on HOP-92 NSCLC, > 100 µM; in the test on K-562 leukemia, 66.6 µM; in the test with A549 NSCLC, > 100 µM; in the test on LOX IMVI melanoma, 34.4 µM; in the test on HOP-62 NSCLC it was 33.7 µM. In addition, the TGI with UACC-257 melanoma was determined as 52.3 µM.

In the case of `O=C(Nc1ccc(-c2nc(N3CCOCC3)c3cccn3n2)cc1)Nc1cccnc1`, the GI50 in the test with NCI-H226 lung is 0.141 µM; with HL-60(TB) leukemia, 0.359 µM; with K-562 leukemia, 0.195 µM; with A549 NSCLC it was 0.244 µM; in the test with HOP-62 NSCLC it was 0.336 µM; in the test with UACC-257 melanoma, 0.428 µM. For the same compound, the TGI in the test with NCI-H226 lung was 1.1 µM; in the test with HOP-92 NSCLC, 0.0637 µM; with HL-60(TB) leukemia, > 100 µM; in the test on K-562 leukemia it was > 100 µM; in the test with A549 NSCLC, > 100 µM; in the test with HOP-62 NSCLC, > 100 µM. The same compound registered a TGI in the test with UACC-257 melanoma of 40.8 µM.

For `CNC(=O)C1CCc2nnc(-c3ccccc3)n21` (stereo not given), the TGI with NCI-H226 lung, in the test with HL-60(TB) leukemia, in the test with K-562 leukemia, in the test on A549 NSCLC, in the test with HOP-62 NSCLC and in the test on UACC-257 melanoma was > 100 µM each time.

As for `CCCC1N2CCCCC2[C@@H]2c3[nH]c4ccccc4c3CCN12` (stereo not given in full), the TGI in the test with HOP-92 NSCLC, with HL-60(TB) leukemia, in the test on K-562 leukemia, in the test with A549 NSCLC, in the test on HOP-62 NSCLC and in the test with UACC-257 melanoma was > 100 µM throughout.

Consider `O=C1c2ccccc2C(=O)N1CCc1ncc[nH]1`, for which the TGI in the test with HOP-92 NSCLC, in the test on K-562 leukemia, in the test with A549 NSCLC, in the test with LOX IMVI melanoma and in the test on UACC-257 melanoma was > 100 µM throughout.

Regarding `CC(=O)O[C@H]1C(=O)[C@@]2(C)C(C(OC(=O)c3ccccc3)[C@]3(O)CC(OC(=O)[C@H](OC(=O)CCC(=O)O)C(NC(=O)c4ccccc4)c4ccccc4)C(C)=C1C3(C)C)C1(OC(C)=O)COC1C[C@@H]2O` (stereo not given in full), the TGI with NCI-H226 lung is > 100 µM; in the test on HOP-92 NSCLC, > 78.8 µM and 91.8 µM; in the test on HL-60(TB) leukemia, < 0.0136 µM; in the test with A549 NSCLC, > 100 µM; in the test on LOX IMVI melanoma, > 100 µM; with HOP-62 NSCLC, > 100 µM. Also, in the test with UACC-257 melanoma, the TGI is > 100 µM. For the same compound, the GI50 with HOP-62 NSCLC is < 0.0175 µM and 0.0835 µM; in the test on UACC-257 melanoma, < 0.01 µM and 0.0295 µM.

Take `Cc1ccc(NC(=O)CC(=O)n2nc(C)c(N=Nc3ccccc3C(=O)O)c2C)cc1`: the TGI in the test on HL-60(TB) leukemia, with K-562 leukemia, with A549 NSCLC, in the test on LOX IMVI melanoma, in the test with HOP-62 NSCLC and with UACC-257 melanoma was > 100 µM in each case.

For the compound `Nc1cccc(S(=O)(=O)NCC(=O)O)c1`, the TGI in the test with NCI-H226 lung, in the test with K-562 leukemia, with A549 NSCLC, in the test on LOX IMVI melanoma, in the test with HOP-62 NSCLC and in the test on UACC-257 melanoma was > 100 µM each time.

Consider `CC/C=C\C[C@H](F)C/C=C1/C(=O)C=C[C@@H]1C/C=C\CCCC(=O)O`, for which the GI50 with NCI-H226 lung is 8.8 µM; in the test on HL-60(TB) leukemia, 3.41 µM; with K-562 leukemia it was 2.18 µM; in the test on A549 NSCLC it was 7.3 µM; with LOX IMVI melanoma it was 3.77 µM; in the test with HOP-62 NSCLC, 7.65 µM. Further, in the test on UACC-257 melanoma, the GI50 was 5.23 µM. Also, the TGI in the test on NCI-H226 lung is 21 µM; in the test with HL-60(TB) leukemia, 16.8 µM; in the test with K-562 leukemia, > 32.5 µM; with A549 NSCLC, 18.8 µM; with LOX IMVI melanoma, 7.97 µM; with HOP-62 NSCLC it was 15.2 µM. The same compound had a TGI with UACC-257 melanoma of 11.4 µM.

Consider `O=C(N/C(=C\c1cccc([N+](=O)[O-])c1)c1nc2ccc([N+](=O)[O-])cc2[nH]1)c1ccccc1`, for which the TGI in the test with HOP-92 NSCLC is 60.7 µM; with K-562 leukemia it was > 100 µM; in the test with A549 NSCLC it was > 100 µM.

Consider `Cc1cccc(C(C)C)c1NC(=O)/C(Cc1c([N+](=O)[O-])cccc1[N+](=O)[O-])=N/NC(=O)CC#N`, for which the TGI in the test on NCI-H226 lung, with HOP-92 NSCLC, with HL-60(TB) leukemia, in the test with K-562 leukemia, in the test on A549 NSCLC and with LOX IMVI melanoma was > 100 µM in each case.

For `N#C/C(=C\c1ccc2ccccc2c1)c1ccccc1`, the TGI with NCI-H226 lung is > 100 µM; with HOP-92 NSCLC it was > 100 µM; with LOX IMVI melanoma, > 100 µM; in the test on HOP-62 NSCLC it was 74.6 µM; in the test on UACC-257 melanoma it was > 100 µM.

On to `CCCC(=O)OCC1OC(n2cnc3c(=S)nc[nH]c32)C(OC(=O)CCC)C1OC(=O)CCC` (stereo not given), for which the GI50 was 5.77 µM in the test on NCI-H226 lung; 2.6 µM in the test on HL-60(TB) leukemia; 1.7 µM in the test on K-562 leukemia; 38.1 µM with A549 NSCLC; 2.34 µM with LOX IMVI melanoma; 2.84 µM with HOP-62 NSCLC. In the test on UACC-257 melanoma, the GI50 is 10.7 µM. Moreover, the TGI with NCI-H226 lung was > 100 µM; in the test with HL-60(TB) leukemia, 9.96 µM; with K-562 leukemia, > 100 µM; in the test with A549 NSCLC, > 100 µM; in the test with LOX IMVI melanoma, > 100 µM; in the test with HOP-62 NSCLC, > 100 µM. Moreover, the TGI in the test on UACC-257 melanoma was > 100 µM.

On to `CCC[CH2][Sn]1([CH2]CCC)[O]C(=O)CN=Cc2c(ccc3ccccc23)[O]1`, for which the GI50 in the test with HOP-92 NSCLC was 0.171 µM; in the test on K-562 leukemia, 0.245 µM; in the test with A549 NSCLC, 1.74 µM; in the test with LOX IMVI melanoma it was 0.242 µM; in the test on HOP-62 NSCLC, 3.91 µM; in the test with UACC-257 melanoma, 0.0434 µM. Further, the TGI was 0.606 µM with HOP-92 NSCLC; 1.09 µM with K-562 leukemia; 3.4 µM in the test on A549 NSCLC; 0.827 µM with LOX IMVI melanoma; > 100 µM in the test on HOP-62 NSCLC; 0.285 µM in the test with UACC-257 melanoma.

Turning to `O=C(CC1(O)C(=O)Nc2ccccc21)c1ccncc1` (stereo not given), the TGI with NCI-H226 lung, in the test with HOP-92 NSCLC, with HL-60(TB) leukemia, in the test with K-562 leukemia, in the test with A549 NSCLC and with LOX IMVI melanoma was > 100 µM each time.

In general, GI50 refers to the concentration at which growth is held to half of that of the control. The term TGI denotes the concentration giving total growth inhibition. The low end stands for greater sensitivity of the cells, the high end for lower sensitivity of the cells.
